# Results reported in US20260207623A1, “USE OF ESTETROL IN HEPATICALLY IMPAIRED PATIENTS” (ESTETRA SRL, priority 2022, published 2026).
# Tested on: post-menopausal women
# Assay: Example 3: severity of moderate to severe VMS
# Assay type: in vivo, human
# Conditions: 15 mg and 20 mg vs placebo; weeks 4 and 12 (FIG. 12)
# Protocol: A further clinical study was designed to evaluate the effect of 15 or 20 mg estetrol (E4) monohydrate, or placebo on the severity and frequency of vasomotor symptoms (VMS) and the safety of E4 20 mg. The inclusion and exclusion criteria as described for Example 2 were maintained for the present Example (i.e. Example 3).
# • 1. Mean change in weekly frequency of moderate to severe vasomotor symptoms (VMS) from Baseline to Week 4 (Efficacy Study Part) [Time Frame: Baseline and Week 4]: • The weekly frequency of moderate to severe VMS at Baseline and Week 4 is defined as the total number (sum) of all recorded moderate to severe VMS experienced during the last 7 consecutive days prior randomization for Baseline and at Week 4. Mean change=mean weekly frequency at Week 4-mean weekly frequency at Baseline. • 2. Mean change in weekly frequency of moderate to severe vasomotor symptoms (VMS) from Baseline to Week 12 (Efficacy Study Part) [Time Frame: Baseline and Week 12] • The weekly frequency of moderate to severe VMS at Baseline and Week 12 is defined as the total number (sum) of all recorded moderate to severe VMS experienced during the last 7 consecutive days prior randomization for Baseline and at Week 12. Mean change=mean weekly frequency at Week 12-mean weekly frequency at Baseline. • 3. […]
smiles,measurement,value
"C[C@]12CC[C@@H]3c4ccc(O)cc4CC[C@H]3[C@@H]1[C@@H](O)[C@@H](O)[C@@H]2O [E4 monohydrate, estetrol monohydrate]",severity of moderate to severe VMS,significantly decreased
